Reference: patent EP0562849A2, “Steroid derivatives” (priority 1992, dated 1993)
“And” between values parts separate entries of the source, which are not always exact repeats. Identical values can stand only once. Like-named read-outs stand apart in the source and are kept apart here.

Test system: human LDL receptor promoter
Experiment: in vitro Luciferase Activity Test (LDL receptor promoter-luciferase reporter in recombinant CHO cells)
Type: cell-based
Design: MED: unit not given here
Settings: for Emax: Homo sapiens, CHO, read-out: MA%; for Emax / MA%: maximum activity (%) over control; for MED: minimum effective dose (molar concentration, unit not given), 24 hr, assay medium with 0.5 µg/ml 25-hydroxycholesterol; for RED: relative effective dose compared to compound of Example 4, below one = more active
Description: A 1546 base pair sequence of the human LDL receptor promoter was amplified using the polymerase chain reaction. A reaction mixture containing 20 pMoles each of the synthetic oligonucleotides 5'-[…]-3' (Seq. I.D. No: 1) and 5'-AAG-[…]-3', (Seq. I.D. No:2) 1 µg human genomic DNA purified from the adenocarcinoma cell line P3UCLA, 200 µM each of dATP, dGTP, dCTP, and TTP, 2.5 units of Taq DNA polymerase, 10mM Tris-HCI pH 8.3, 50 mM KCI, […], 0.1% gelatin in a final volume of 100 µl was subjected to 30 cycles of 15 sec at 96°C, 30 sec at 55°C, and 1 min at 72°C. The material was subject to gel electrophoresis on a 1% agarose gel and the 1546 base pair band was isolated and restriction enzyme digested with Hind III and Nde I. This fragment was ligated into the plasmid pSP72 (ProMega Biotech), which had previously been restriction enzyme nuclease digested with Hind III and Nde I. The resulting vector, pNLDLRP, was restriction endonulease digested with Ndel and Hind III and the material was again run on a 1% agarose gel to reisolate the 1546 bp LDL receptor sequence.
Plasmid vector PSv2 was constructed by digesting plasmid pSv2-globin with Hind III and Bgl II then ligating an Nrul-Xhol linker into the vector. Plasmid pSv2 globin is disclosed in U.S. Patent No. 4,775,624, the entire teaching of which is herein incorporated by reference. The linker contained the following sequences: [formula] (Seq. I.D. No: 3), and [formula] ' (Seq. I.D. No:4).
The resulting vector was designated pSv2-H NXB because it contained a […], an Nrul site, an Xhol site and a Bgl site. The Hind III-Bgl II fragment of plasmid pAlc4(NRRL B-18783), which contains the firefly luciferase gene, was then ligated into the Hin III-Bgl site of plasmid pSv2-HNXB. A neomycin resistance-conforming gene was then ligated into the Bam HI site of the resultant plasmid to form plasmid pSv2.
A 1546 base pair fragment was isolated and cloned into a Ndel and Hind III (partial) restriction digested vector pSv2 containing the firefly luciferase reporter gene and a gene for neomycin resistance. The resulting vector, pLDL-Luc1 Neo-10, contains the human LDL receptor promoter driving expression of the firefly luciferase gene, a gene coding for neomycin resistance, ampicillin resistant marker and an origin of replication.
Plasmid pLDL-Luc 1 Neo-10 was used to stably transfect Chinese Hamster Ovary cells using a Lipofection Reagent kit and procedure from Gibco BRL Research Products Division Life Technologies Inc. Transformants were selected by picking individual colonies grown in Dulbecco's modified Eagle's medium supplimented with 10% fetal bovine serum and containing 500 µg per ml […]. […] Clone S27/B30 was used for subsequent screening.
In developing a cell based screen it is important to have a negative control. The viral SV40 promoter is ideal for this purpose in that it has a number of SP1 elements that enhance gene transcription. These elements are not under the control of end product repression; but they do have a high degree of sequence homology with the 16 base pair long sterol response element found in the LDL receptor promoter. The SV40 promoter should therefore be a sensitive mechanism to screen out agents that induce nonspecific transcription.
Chinese Hamster Ovary cells were stably cotransfected with a vector pSV2AL-A 5' containing the SV40 promoter driving expression of the firefly luciferase gene and a second vector pSV2 NeoBam containing a neomycin resistant marker. Transfections were carried out using the Lipofectin Reagent kit and procedure from Gibco BRL Research Products Division Life Technologies Inc. Transformants were selected by picking individual colonies grown in Dulbecco's modified Eagle's medium supplemented with 10% fetal bovine serum and containing 500 µg per ml of geneticin. Individual clones were selected, lysed and assayed for luciferase production. […]

[1] = NA is not active, 30% luciferase activity cutoff point (footnote 1)
[2] = tests using 30% luciferase activity cutoff point (footnote 1)
[3] = 30% luciferase activity cutoff point (footnote 1)
[4] = 15% luciferase activity cutoff point (footnote 2)
[5] = tests using 15% luciferase activity cutoff point (footnote 2)

| Compound | Emax [1] | MED [2] | Emax [4] | MED [5] | RED [4] | MA% [1] | also measured |
| --- | --- | --- | --- | --- | --- | --- | --- |
| C/C=C/C[C@@H]1C(=O)CC[C@]2(C)[C@H]3CC[C@]4(C)[C@@H]([C@H](C)CCCC(C)(C)O)CC[C@H]4[C@@H]3CC[C@@H]12 [Example 3, [4a(E),5a]-4-(2-butenyl)-25-hydroxycholestan-3-one] | 144% | 2.2 |  |  |  |  | RED [3]: 0.97 |
| CCCC[C@@H]1[C@H](O)CC[C@@]2(C)[C@H]1CC[C@@H]1[C@@H]2CC[C@]2(C)[C@@H]([C@H](C)CCCC(C)C)CC[C@@H]12 [Example 7, [4a,5a]-4-butylcholestan-3a-ol] |  |  | 46% |  |  |  | MA% [4]: 30% |
| C/C=C/C[C@@H]1[C@H](N)CC[C@@]2(C)[C@H]1CC[C@@H]1[C@@H]2CC[C@]2(C)[C@@H]([C@H](C)CCCC(C)C)CC[C@@H]12 [Example 8, [4a(E), 5a]-4-(2-butenyl)-3a-aminocholestone] | 51% | 5.6 |  |  |  |  | RED [3]: 2.50 |
| C/C=C/C[C@@H]1[C@H](NC(C)=O)CC[C@@]2(C)[C@H]1CC[C@@H]1[C@@H]2CC[C@]2(C)[C@@H]([C@H](C)CCCC(C)C)CC[C@@H]12 [Example 9, [4a(E),5a]-4-(2-butenyl)-3a acetamidocholestane] | 60% | 2.0 |  |  |  |  | RED [3]: 0.88 |
| C/C=C/C[C@@H]1[C@@H](NC(C)=O)CC[C@@]2(C)[C@H]1CC[C@@H]1[C@@H]2CC[C@]2(C)[C@@H]([C@H](C)CCCC(C)C)CC[C@@H]12 [Example 10, [4a(E),5a]-4-(2-butenyl)-3b acetamidocholestane] | 55% | 10.3 |  |  |  |  | RED [3]: 4.5 |
| CC(C)CCC[C@@H](C)[C@H]1CC[C@H]2[C@@H]3CCC4[C@H](Cc5ccccc5)[C@H](O)CC[C@]4(C)[C@H]3CC[C@]12C (stereo partly drawn) [Example 22, 4a-benzylcholestan-3a-ol] | 18% |  |  |  |  |  |  |
| CC(C)CCC[C@@H](C)[C@H]1CC[C@H]2[C@@H]3CCC4[C@H](Cc5ccc(C(F)(F)F)cc5)[C@H](O)CC[C@]4(C)[C@H]3CC[C@]12C (stereo partly drawn) [Example 26, 4a-(4-trifluoromethylbenzyl)cholestan-3a-ol] |  |  |  | 9.1 |  |  | MA% [4]: 59% and 34% |
| CC(C)CCC[C@@H](C)[C@H]1CC[C@H]2[C@@H]3CCC4[C@H](Cc5ccc(Cl)c(Cl)c5)[C@H](O)CC[C@]4(C)[C@H]3CC[C@]12C (stereo partly drawn) [Example 27, 4a-(3,4-dichlorobenzyl)cholestan-3a-ol] |  |  | 32% | 9.1 | 4.0 |  |  |
| COC(=O)c1ccc(C[C@H]2C3CC[C@H]4[C@@H]5CC[C@H]([C@H](C)CCCC(C)C)[C@@]5(C)CC[C@@H]4[C@@]3(C)CC[C@H]2O)cc1 (stereo partly drawn) [Example 29, 4a-(4-methoxycarbonylbenzyl)cholestan-3a-ol] |  |  | 37% | 14 | 2.5 |  |  |
| CC(C)CCC[C@@H](C)[C@H]1CC[C@H]2[C@@H]3CCC4[C@H](Cc5ccc(Cl)cc5)[C@H](O)CC[C@]4(C)[C@H]3CC[C@]12C (stereo partly drawn) [Example 31, 4a-(4-chlorobenzyl)cholestan-3a-ol] |  |  | 46% | 9.7 | 4.3 |  |  |
| CC(C)CCC[C@@H](C)[C@H]1CC[C@H]2[C@@H]3CCC4[C@H](Cc5ccc(OCc6ccccc6)cc5)[C@H](O)CC[C@]4(C)[C@H]3CC[C@]12C (stereo partly drawn) [Example 32, 4a-(4-benzyloxybenzyl)cholestan-3a-ol] |  |  | 36% | 8.6 | 3.8 |  |  |
| CC(C)CCC[C@@H](C)[C@H]1CC[C@H]2[C@@H]3CCC4[C@H](Cc5ccc(CO)cc5)[C@H](O)CC[C@]4(C)[C@H]3CC[C@]12C (stereo partly drawn) [Example 33, 4a-(4-hydroxymethylbenzyl)cholestan-3a-ol] |  |  | 28% | 9.8 | 4.3 |  |  |
| CC(C)CCC[C@@H](C)[C@H]1CC[C@H]2[C@@H]3CCC4[C@H](Cc5ccc(C(=O)O)cc5)[C@H](O)CC[C@]4(C)[C@H]3CC[C@]12C (stereo partly drawn) [Example 34, 4a-(4-carboxybenzyl)cholestan-3a-ol] |  |  | 38% | 4.8 | 2.1 |  |  |
| CC(C)CCC[C@@H](C)[C@H]1CC[C@H]2[C@@H]3CCC4=C(Cc5ccccc5)[C@H](O)CC[C@]4(C)[C@H]3CC[C@]12C [Example 38, 4-benzyl-4-cholesten-3a-ol] |  |  |  | 84 and 42 | 7.37 and 3.7 |  | MA% [4]: 33% and 58% |
| C=CC[C@H]1C2=CC[C@H]3[C@@H]4CC[C@H]([C@H](C)CCCC(C)C)[C@@]4(C)CC[C@@H]3[C@@]2(C)CC[C@H]1O [Example 40, 4a-(2-propenyl)-5-cholesten-3a-ol] |  |  | 99% | 2.3 | 1.0 | 110% and 71% | RED [3]: 0.51 and 0.52 |
| C=CC[C@@H]1[C@H](O)CC[C@@]2(C)[C@H]1CC[C@@H]1[C@@H]2CC[C@]2(C)[C@@H]([C@H](C)CCCN(C)C)CC[C@@H]12 [Example 44, 4a-(2-propenyl)-cholan-24-N,N-dimethylamino-3a-ol] |  |  | 62% |  |  | 77% and 56% | MA% [4]: 78% |
| C[C@H](CCCN(C)C)[C@H]1CC[C@H]2[C@@H]3CC[C@@H]4C[C@H](O)CC[C@]4(C)[C@H]3C[C@H](O)[C@]12C [Example 50, 3a, 12a-dihydroxy-25-azacoprostane] | 81% | 6.2 |  |  |  | 92% |  |
| C[C@H](CCCN(C)C)[C@H]1CC[C@H]2[C@@H]3CC[C@@H]4C[C@H](O)CC[C@]4(C)[C@H]3CC[C@]12C [Example 51, 3a-hydroxy-25-azacoprostane] | 112% | 6.4 | 173% | 1.28 | 1.16 |  | RED [3]: 1.13 |
| C[C@H](CCCN(C)C)[C@H]1CC[C@H]2[C@@H]3[C@H](O)C[C@@H]4C[C@H](O)CC[C@]4(C)[C@H]3CC[C@]12C [Example 52, 3a,7a-dihydroxy-25-azacoprostane] |  |  |  |  |  | 121% and 85% and 136% and 86% and 84% |  |
| C[C@H](CCCN(C)C)[C@H]1CC[C@H]2[C@@H]3[C@H](O)C[C@@H]4C[C@H](O)CC[C@]4(C)[C@H]3C[C@H](O)[C@]12C [Example 53, 3a,7a,12a-trihydroxy-25-azacoprostane] |  |  |  |  |  | 57% and 99% |  |
| C[C@H](CCCN(C)C)[C@H]1CC[C@H]2[C@@H]3[C@H](O)C[C@@H]4C[C@H](O)CC[C@]4(C)[C@H]3CC[C@]12C [Example 54, 3a,7a-dihydroxy-25-azacoprostane] |  | 12.3 |  |  |  | 102% and 92% |  |
| C=CC[C@@H]1[C@H](O)CC[C@@]2(C)[C@H]1CC[C@@H]1[C@@H]2CC[C@]2(C)C(OCCCCCCCC)CC[C@@H]12 (stereo partly drawn) [Example 65, (3a,4a,5a)-17-(octyloxy)-4-(2-propenyl)androstan-3-ol] |  |  |  | 11.3 and 22.5 |  |  |  |
| C=CC[C@H]1C2CC[C@@H]3[C@H](CC[C@]4(C)C(OCCCc5ccccc5)CC[C@@H]34)[C@@]2(C)CC[C@H]1O (stereo partly drawn) [Example 67, (3α,4α)-17-(3-phenylpropoxy)-4-(2-propenyl)androstan-3-ol] |  | 11.1 and 22.2 |  |  |  | 111% and 76% | MA% [4]: 116% and 118% and 74% |
